Like-named read-outs stand apart in the source and are kept apart here.
Assays:
Test in all cases: cells
Design in all cases: species or system NCI-60 human tumour cell lines; NCI-60 one-dose screen at 10 uM, percent growth inhibition versus untreated control cells
[1] = tested on: MDA-MB-435; details: Homo sapiens, MDA-MB-435, growth inhibition, one dose
[2] = tested on: UO-31; details: Homo sapiens, UO-31, growth inhibition, one dose
[3] = tested on: M14; details: Homo sapiens, M14, growth inhibition, one dose
[4] = tested on: SNB-75; details: Homo sapiens, SNB-75, growth inhibition, one dose
[5] = tested on: HL-60(TB); details: Homo sapiens, HL-60, growth inhibition, one dose
[6] = tested on: SF-539; details: Homo sapiens, SF-539, growth inhibition, one dose
[7] = tested on: RPMI-8226; details: Homo sapiens, RPMI-8226, growth inhibition, one dose
[8] = tested on: T-47D; details: Homo sapiens, T47D, growth inhibition, one dose
[9] = tested on: OVCAR-4; details: Homo sapiens, OVCAR-4, growth inhibition, one dose
[10] = tested on: SW-620; details: Homo sapiens, SW-620, growth inhibition, one dose
[11] = tested on: NCI/ADR-RES; details: Homo sapiens, NCI/ADR-RES, growth inhibition, one dose
[12] = tested on: HOP-62; details: Homo sapiens, HOP-62, growth inhibition, one dose
[13] = tested on: MALME-3M; details: Homo sapiens, Malme-3M, growth inhibition, one dose
[14] = tested on: HCC-2998; details: Homo sapiens, HCC 2998, growth inhibition, one dose
[15] = tested on: HCT-116; details: Homo sapiens, HCT-116, growth inhibition, one dose
[16] = tested on: SK-MEL-2; details: Homo sapiens, SK-MEL-2, growth inhibition, one dose
[17] = tested on: OVCAR-3; details: Homo sapiens, OVCAR-3, growth inhibition, one dose
[18] = tested on: ACHN; details: Homo sapiens, ACHN, growth inhibition, one dose
[19] = read-out: Growth% inhibition / 5d
[20] = read-out: Growth% inhibition / 5a
[21] = read-out: Growth% inhibition / 5b
[22] = read-out: Growth% inhibition / 5e
[23] = read-out: Growth% inhibition / 5h

With `CN(C)c1ccc(C=NNC(=O)/C=C/C=C/c2ccc3c(c2)OCO3)cc1` (mixture of isomers) [5d, (2E,4E)-5-(Benzo[d][1,3]dioxol-5-yl)-N′-((E/Z)-4-(dimethylamino)-benzylidene)penta-2,4-dienehydrazide] the inhibition at 10 µM [1, 19] was 70.1%, the inhibition at 10 µM [2, 19] was 23.7% and the inhibition at 10 µM [3, 19] was 22.2%. The inhibition at 10 µM [4, 19] was 25.7%.

`O=C(/C=C/C=C/c1ccc2c(c1)OCO2)NN=Cc1ccc(O)cc1` [5a, (2E,4E)-5-(Benzo[d][1,3]dioxol-5-yl)-N′-((E,Z)-4-hydroxybenzylidene)penta-2,4-dienehydrazide] gave an inhibition at 10 µM [5, 20] of 44.1%, an inhibition at 10 µM [1, 20] of 73% and an inhibition at 10 µM [6, 20] of 17.6%. For the same compound, the inhibition at 10 µM [7, 20] was 16.9%, the inhibition at 10 µM [8, 20] was 18.6% and the inhibition at 10 µM [9, 20] was 12.7%. For the same compound, the inhibition at 10 µM [2, 20] was 39.2%, the inhibition at 10 µM [3, 20] was 17.1% and the inhibition at 10 µM [10, 20] was 19.8%. It also gave an inhibition at 10 µM [4, 20] of 27%.

In the case of `O=C(/C=C/C=C/c1ccc2c(c1)OCO2)N/N=C/c1ccc(O)cc1O` [5b, (2E,4E)-5-(Benzo[d][1,3]dioxol-5-yl)-N′-((E)-2,4-dihydroxybenzylidene)penta-2,4-dienehydrazide], the inhibition at 10 µM [11, 21] is reported as 94.8%, the inhibition at 10 µM [1, 21] is reported as 67.4% and the inhibition at 10 µM [6, 21] is reported as 85.7%. It also gave an inhibition at 10 µM [12, 21] of 72.9%, an inhibition at 10 µM [13, 21] of 59.7% and an inhibition at 10 µM [14, 21] of 61.1%. It also gave an inhibition at 10 µM [7, 21] of 52.3%, an inhibition at 10 µM [15, 21] of 91.3% and an inhibition at 10 µM [8, 21] of 76.1%. For the same compound, the inhibition at 10 µM [9, 21] was 90.8%, the inhibition at 10 µM [16, 21] was 47.2% and the inhibition at 10 µM [17, 21] was 90.3%. The inhibition at 10 µM [2, 21] was 88.6%, the inhibition at 10 µM [18, 21] was 85.6% and the inhibition at 10 µM [3, 21] was 69.7%. It also gave an inhibition at 10 µM [10, 21] of 73.5% and an inhibition at 10 µM [4, 21] of 36%.

Compound `CCN(CC)c1ccc(/C=N/NC(=O)/C=C/C=C/c2ccc3c(c2)OCO3)c(O)c1` [5e, (2E,4E)-5-(Benzo[d][1,3]dioxol-5-yl)-N′-((E)-4-(diethylamino)-2-hydroxybenzylidene)penta-2,4-dienehydrazide] has an inhibition at 10 µM [11, 22] of 82.5%, an inhibition at 10 µM [5, 22] of 97.3% and an inhibition at 10 µM [1, 22] of 51.1%. The inhibition at 10 µM [6, 22] was 77.3%, the inhibition at 10 µM [12, 22] was 71.5% and the inhibition at 10 µM [13, 22] was 43.5%. It also gave an inhibition at 10 µM [14, 22] of 46%, an inhibition at 10 µM [7, 22] of 46.4% and an inhibition at 10 µM [15, 22] of 92.1%. It also gave an inhibition at 10 µM [8, 22] of 73.7%, an inhibition at 10 µM [9, 22] of 84.7% and an inhibition at 10 µM [16, 22] of 34.3%. It also gave an inhibition at 10 µM [17, 22] of 95.1%, an inhibition at 10 µM [2, 22] of 75% and an inhibition at 10 µM [18, 22] of 74.4%. For the same compound, the inhibition at 10 µM [3, 22] was 63.6%, the inhibition at 10 µM [10, 22] was 67.7% and the inhibition at 10 µM [4, 22] was 41.2%.

Compound `C/C(=N\NC(=O)/C=C/C=C/c1ccc2c(c1)OCO2)c1ccc(Br)cc1` [5h, (2E,4E)-5-(Benzo[d][1,3]dioxol-5-yl)-N′-((E)-1-(4-bromophenyl)ethylidene)penta-2,4-dienehydrazide] has an inhibition at 10 µM [11, 23] of 33.9%, an inhibition at 10 µM [5, 23] of 15.9% and an inhibition at 10 µM [1, 23] of 13.6%. It also gave an inhibition at 10 µM [6, 23] of 12.5%, an inhibition at 10 µM [12, 23] of 33.2% and an inhibition at 10 µM [13, 23] of 28.7%. For the same compound, the inhibition at 10 µM [14, 23] was 10.8%, the inhibition at 10 µM [7, 23] was 19.4% and the inhibition at 10 µM [15, 23] was 12.3%. It also gave an inhibition at 10 µM [8, 23] of 65%, an inhibition at 10 µM [9, 23] of 65.2% and an inhibition at 10 µM [16, 23] of 11%. It also gave an inhibition at 10 µM [17, 23] of 24.4%, an inhibition at 10 µM [2, 23] of 44.9% and an inhibition at 10 µM [18, 23] of 24.1%. For the same compound, the inhibition at 10 µM [3, 23] was 26.7%, the inhibition at 10 µM [10, 23] was 25.4% and the inhibition at 10 µM [4, 23] was 68.1%.

From article PMC9037111, “Structure-based design, synthesis, and biological evaluation of novel piperine–resveratrol hybrids as antiproliferative agents targeting SIRT-2” (RSC Advances, 2021)
